From patent publication US20160287589A1, “SUBSTITUTED-IMIDAZOPYRIDAZINES” (BAYER PHARMA AKTIENGESELLSCHAFT, priority 2013, published 2016)

Key:
MKNK1 [1] = biological target: T1, MKNK1 (Homo sapiens, UniProt Q9BUB5, T385D); experiment: MKNK1 kinase high ATP assay (TR-FRET-based); assay type: biochemical; conditions: Table 2a; 2 mM ATP, 15 min preincubation
T1 construct: GST (N); purchased Carna Biosciences 02-145; host or cells: insect cells (baculovirus expression system)
Summary of the method: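 TR-FRET read-out (anti-phospho-S6 Ser236 antibody, Eu/XL665) of biotin-peptide phosphorylation (0.06 μM) at high ATP (2 mM final). Enzyme was GST-MKNK1 full length, T344D, pre-bound to compound for 15 min before a 30 min reaction at 22 °C, pH 7.5. Inhibition scaled between no-inhibitor (0%) and no-enzyme (100%) wells.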

MKNK1 [2] = biological target: T1, MKNK1; experiment: MKNK1 kinase assay (MKNK1 TR-FRET assay); assay type: biochemical; conditions: Table 1a; 10 μM ATP, 15 min preincubation
Description: MKNK1-inhibitory activity of compounds of the present invention was quantified employing the MKNK1 TR-FRET assay as described in the following paragraphs.
A recombinant fusion protein of Glutathione-S-Transferase (GST, N-terminally) and human full-lengt MKNK1 (amino acids 1-424 and T344D of accession number BAA 19885.1), expressed in insect cells using baculovirus expression system and purified via glutathione sepharose affinity chromatography, was purchased from Carna Biosciences (product no 02-145) and used as enzyme. As substrate for the kinase reaction the biotinylated peptide biotin-Ahx-IKKRKLTRRKSLKG (C-terminus in amide form) was used which can be purchased e.g. form the company Biosyntan (Berlin-Buch, Germany).
For the assay 50 nL of a 100 fold concentrated solution of the test compound in DMSO was pipetted into a black low volume 384 well microtiter plate (Greiner Bio-One, Frickenhausen, Germany), 2 μL of a solution of MKNK1 in aqueous assay buffer [50 mM HEPES pH 7.5, 5 mM magnesium chloride, 1.0 mM dithiothreitol, 0.005% (v/v) Nonidet-P40 (Sigma)] was added and the mixture was incubated for 15 min at 22° C. to allow pre-binding of the test compounds to the enzyme before the start of the kinase reaction. […] The concentration of MKNK1 was adjusted depending of the activity of the enzyme lot and was chosen appropriate to have the assay in the linear range, typical concentrations were in the range of […]. The reaction was stopped by the addition of 5 μL of a solution of TR-FRET detection reagents (5 nM streptavidine-XL665 [Cisbio Bioassays, Codolet, France] and 1 nM anti-ribosomal protein S6 (pSer236)-antibody from Invitrogen [#44921G] and 1 nM LANCE EU-W1024 labeled ProteinG [Perkin-Elmer, product no. AD0071]) in an aqueous EDTA-solution (100 mM EDTA, 0.1% (w/v) bovine serum albumin in 50 mM HEPES pH 7.5).
The resulting mixture was incubated for 1 h at 22° C. to allow the formation of complex between the phosphorylated biotinylated peptide and the detection reagents. Subsequently the amount of phosphorylated substrate was evaluated by measurement of the resonance energy transfer from the Eu-chelate to the streptavidine-XL. Therefore, the fluorescence emissions at 620 nm and 665 nm after excitation at 350 nm were measured in a TR-FRET reader, e.g. a Rubystar (BMG Labtechnologies, Offenburg, Germany) or a Viewlux (Perkin-Elmer). The ratio of the emissions at 665 nm and at […] was taken as the measure for the amount of phosphorylated substrate. The data were normalised (enzyme reaction without inhibitor=0% inhibition, all other assay components but no enzyme=100% inhibition).

T1 sequence (Q9BUB5 1-424 isoform Q9BUB5-2 T344D): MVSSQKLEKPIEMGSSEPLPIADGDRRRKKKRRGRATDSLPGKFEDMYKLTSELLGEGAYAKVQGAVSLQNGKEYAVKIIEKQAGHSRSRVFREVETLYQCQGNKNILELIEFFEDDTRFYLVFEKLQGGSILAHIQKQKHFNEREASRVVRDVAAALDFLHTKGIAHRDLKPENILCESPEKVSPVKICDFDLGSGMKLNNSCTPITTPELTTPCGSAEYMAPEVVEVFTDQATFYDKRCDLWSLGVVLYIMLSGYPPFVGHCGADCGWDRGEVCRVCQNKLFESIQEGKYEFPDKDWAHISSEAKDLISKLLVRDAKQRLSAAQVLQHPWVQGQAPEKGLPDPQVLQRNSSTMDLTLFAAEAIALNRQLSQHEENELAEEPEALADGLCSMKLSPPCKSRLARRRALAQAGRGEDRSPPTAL

| SMILES | IC50 (MKNK1 [1]) [nM] | IC50 (MKNK1 [2]) [nM] |
| --- | --- | --- |
| CN1C(=O)CC[C@H]1COc1ccc2ncc(-c3cc4ccccc4o3)n2n1 [Example I-32, (5S)-5-({[3-(1-Benzofuran-2-yl)imidazo[1,2-b]pyridazin-6-yl]oxy}methyl)-1-methylpyrrolidin-2-one] | 39.8 | 13.7 |
| COc1ccc2oc(-c3cnc4ccc(OCCN5CCNC5=O)nn34)cc2c1 [Example I-33, 1-(2-{[3-(5-Methoxy-1-benzofuran-2-yl)imidazo[1,2-b]pyridazin-6-yl]oxy}ethyl)imidazolidin-2-one] | 40.5 | 15.5 |
| CC(=O)NC(COc1ccc2ncc(-c3cc4ccccc4o3)n2n1)c1cccnc1 (centres unmarked) [Example I-34, N-[2-{[3-(1-Benzofuran-2-yl)imidazo[1,2-b]pyridazin-6-yl]oxy}-1-(pyridin-3-yl)ethyl]acetamide] | 45.1 | 16.4 |
| CC(=O)NC[C@H](Oc1ccc2ncc(-c3cc4ccccc4o3)n2n1)c1cccnc1 [Example I-35, N-[(2R)-2-{[3-(1-Benzofuran-2-yl)imidazo[1,2-b]pyridazin-6-yl]oxy}-2-(pyridin-3-yl)ethyl]acetamide] | 47.8 | 17.9 |
| CN(C)C(=O)COc1ccc2ncc(-c3cc4ccccc4o3)n2n1 [Example I-36, 2-{[3-(1-Benzofuran-2-yl)imidazo[1,2-b]pyridazin-6-yl]oxy}-N,N-dimethyl-acetamide] | 56.2 | 15.1 |
| CC(C)(C)NC(=O)COc1ccc2ncc(-c3cc4ccccc4o3)n2n1 [Example I-37, 2-{[3-(1-Benzofuran-2-yl)imidazo[1,2-b]pyridazin-6-yl]oxy}-N-tert-butyl-acetamide] | 70 | 17 |
| O=C1NCCC1Oc1ccc2ncc(-c3cc4ccccc4o3)n2n1 (centres unmarked) [Example I-38, 3-{[3-(1-Benzofuran-2-yl)imidazo[1,2-b]pyridazin-6-yl]oxy}pyrrolidin-2-one] | 71.7 | 64 |
| NC(=O)C(Oc1ccc2ncc(-c3cc4ccccc4o3)n2n1)c1cccnc1 (centres unmarked) [Example I-39, 2-{[3-(1-Benzofuran-2-yl)imidazo[1,2-b]pyridazin-6-yl]oxy}-2-(pyridin-3-yl)acetamide] | 77.7 | 55.2 |
| CC(C)(C)C(=O)N1CCC[C@H]1CCOc1ccc2ncc(-c3cc4cc(Cl)ccc4o3)n2n1 [Example I-40, 1-[(2S)-2-(2-{[3-(5-Chloro-1-benzofuran-2-yl)imidazo[1,2-b]pyridazin-6-yl]-oxy}ethyl)pyrrolidin-1-yl]-2,2-dimethylpropan-1-one] | 76.4 | 26 |
| O=C1CNC[C@H](COc2ccc3ncc(-c4cc5ccccc5o4)n3n2)N1 [Example I-42, (6R)-6-({[3-(1-Benzofuran-2-yl)imidazo[1,2-b]pyridazin-6yl]oxy}methyl)-piperazin-2-one] | 26.8 | 14.2 |
| CC(C)(C)C(=O)N1CCC[C@H]1CCOc1ccc2ncc(-c3cc4ccccc4o3)n2n1 [Example I-46, 1-[(2S)-2-(2-{[3-(1-Benzofuran-2-yl)imidazo[1,2-b]-pyridazin-6-yl]oxy}ethyl)pyrrolidin-1-yl]-2,2-dimethylpropan-1-one] | 1.9 | 1.2 |
| Cn1cc(C(=O)N2CCC[C@H]2CCOc2ccc3ncc(-c4cc5ccccc5o4)n3n2)cn1 [Example I-48, [(2S)-2-(2-{[3-(1-Benzofuran-2-yl)imidazo[1,2-b]-pyridazin-6-yl]oxy}ethyl)pyrrolidin-1-yl](1-methyl-1H-pyrazol-4-yl)methanone] | 2.3 | 1.8 |
| O=C(CC1CC1)N1CCC[C@H]1CCOc1ccc2ncc(-c3cc4ccccc4o3)n2n1 [Example I-51, 1-[(2S)-2-(2-{[3-(1-Benzofuran-2-yl)imidazo[1,2-b]-pyridazin-6-yl]oxy}ethyl)pyrrolidin-1-yl]-2-cyclopropylethanone] | 3.2 | 2.1 |
| O=C(C1CCCO1)N1CCC[C@H]1CCOc1ccc2ncc(-c3cc4ccccc4o3)n2n1 (stereo partly drawn) [Example I-53, [(2S)-2-(2-{[3-(1-Benzofuran-2-yl)imidazo[1,2-b]-pyridazin-6-yl]oxy}ethyl)pyrrolidin-1-yl](tetrahydrofuran-2-yl)methanone] | 3.5 | 2.4 |
| O=C(C1CCC1)N1CCC[C@H]1CCOc1ccc2ncc(-c3cc4ccccc4o3)n2n1 [Example I-54, [(2S)-2-(2-{[3-(1-Benzofuran-2-yl)imidazo[1,2-b]-pyridazin-6-yl]oxy}ethyl)pyrrolidin-1-yl](cyclobutyl)methanone] | 3.7 | 2 |
| O=C(C1CCCC1)N1CCC[C@H]1CCOc1ccc2ncc(-c3cc4ccccc4o3)n2n1 [Example I-56, [(2S)-2-(2-{[3-(1-Benzofuran-2-yl)imidazo[1,2-b]-pyridazin-6-yl]oxy}ethyl)pyrrolidin-1-yl](cyclopentyl)-methanone] | 3.8 | 4 |

Second part, the molecule after the results:

| IC50 (MKNK1 [1]) [nM] | IC50 (MKNK1 [2]) [nM] | SMILES |
| --- | --- | --- |
| 1.3 | 1 | O=C(c1cccs1)N1CCC[C@H]1CCOc1ccc2ncc(-c3cc4ccccc4o3)n2n1 [Example I-43, [(2S)-2-(2-{[3-(1-Benzofuran-2-yl)imidazo[1,2-b]pyridazin-6-yl]oxy}ethyl)pyrrolidin-1-yl](thiophen-2-yl)methanone] |
| 1.7 | 1.1 | CCC(=O)N1CCC[C@H]1CCOc1ccc2ncc(-c3cc4ccccc4o3)n2n1 [Example I-44, 1-[(2S)-2-(2-{[3-(1-Benzofuran-2-yl)imidazo[1,2-b]-pyridazin-6-yl]oxy}ethyl)pyrrolidin-1-yl]propan-1-one] |
| 1.8 | 1.3 | O=C(c1cnoc1)N1CCC[C@H]1CCOc1ccc2ncc(-c3cc4ccccc4o3)n2n1 [Example I-45, [(2S)-2-(2-{[3-(1-Benzofuran-2-yl)imidazo[1,2-b]-pyridazin-6-yl]oxy}ethyl)pyrrolidin-1-yl](1,2-oxazol-4-yl)methanone] |
| 2.2 | 1.6 | O=C(c1ccno1)N1CCC[C@H]1CCOc1ccc2ncc(-c3cc4ccccc4o3)n2n1 [Example I-47, [(2S)-2-(2-{[3-(1-Benzofuran-2-yl)imidazo[1,2-b]-pyridazin-6-yl]oxy}ethyl)pyrrolidin-1-yl](1,2-oxazol-5-yl)methanone] |
| 2.4 | 1.1 | O=C(c1ccco1)N1CCC[C@H]1CCOc1ccc2ncc(-c3cc4ccccc4o3)n2n1 [Example I-49, [(2S)-2-(2-{[3-(1-Benzofuran-2-yl)imidazo[1,2-b]-pyridazin-6-yl]oxy}ethyl)pyrrolidin-1-yl](furan-2-yl)methanone] |
| 3.2 | 2.4 | Cn1ccc(C(=O)N2CCC[C@H]2CCOc2ccc3ncc(-c4cc5ccccc5o4)n3n2)n1 [Example I-50, [(2S)-2-(2-{[3-(1-Benzofuran-2-yl)imidazo[1,2-b]-pyridazin-6-yl]oxy}ethyl)pyrrolidin-1-yl](1-methyl-1H-pyrazol-3-yl)methanone] |
| 3.4 | 1.7 | Cc1nocc1C(=O)N1CCC[C@H]1CCOc1ccc2ncc(-c3cc4ccccc4o3)n2n1 [Example I-52, [(2S)-2-(2-{[3-(1-Benzofuran-2-yl)imidazo[1,2-b]-pyridazin-6-yl]oxy}ethyl)pyrrolidin-1-yl](3-methyl-1,2-oxazol-4-yl)methanone] |
| 3.8 | 2.1 | O=C(c1ccon1)N1CCC[C@H]1CCOc1ccc2ncc(-c3cc4ccccc4o3)n2n1 [Example I-55, [(2S)-2-(2-{[3-(1-Benzofuran-2-yl)imidazo[1,2-b]-pyridazin-6-yl]oxy}ethyl)pyrrolidin-1-yl](1,2-oxazol-3-yl)methanone] |
| 3.9 | 1.9 | O=C(c1ccsc1)N1CCC[C@H]1CCOc1ccc2ncc(-c3cc4ccccc4o3)n2n1 [Example I-57, [(2S)-2-(2-{[3-(1-Benzofuran-2-yl)imidazo[1,2-b]-pyridazin-6-yl]oxy}ethyl)pyrrolidin-1-yl](thiophen-3-yl)methanone] |
